Here are results for 51 compounds from patent US20260053794A1, “SOMATOSTATIN RECEPTOR 2 AGONISTS AND USES THEREOF” (Exelixis, Inc., priority 2022, published 2026).

SMILES strings stand for the structures.

The target in this assay is T1, Somatostatin Receptor 2 (SSTR2) (Homo sapiens, UniProt P30874).
T1 construct: expressed in transfected cells
T1 sequence (P30874 whole entry, species assumed): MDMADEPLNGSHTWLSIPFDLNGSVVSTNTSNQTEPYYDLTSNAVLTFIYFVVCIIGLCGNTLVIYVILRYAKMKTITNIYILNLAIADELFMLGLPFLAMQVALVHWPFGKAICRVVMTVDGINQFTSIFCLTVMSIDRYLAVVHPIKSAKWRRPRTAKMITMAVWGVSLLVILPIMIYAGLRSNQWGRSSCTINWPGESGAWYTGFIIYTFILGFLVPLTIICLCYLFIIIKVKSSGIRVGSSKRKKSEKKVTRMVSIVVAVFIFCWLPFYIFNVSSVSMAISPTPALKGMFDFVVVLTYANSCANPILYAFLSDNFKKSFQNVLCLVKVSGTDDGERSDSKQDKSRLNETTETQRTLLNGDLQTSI
Kind of assay: Biochemical Assay for Activation of Somatostatin Receptor 2 (SSTR2), Cisbio HTRF cAMP assay. The assay is classed as cell-based. Particulars: average pEC50; HTRF cAMP assay in stably-transfected cell line expressing SSTR2; cells incubated with compounds for 1-2h. On the procedure:
Biochemical Assay for Activation of Somatostatin Receptor 2 (SSTR2)
Agonistic activation of SSTRs leads to an […] production of intracellular cAMP levels. Cisbio's homogeneous time-resolved fluorescence (HTRF) cAMP assay was used to measure cAMP concentration in an high-throughput format. Increase in intracellular cAMP concentrations was measuring using a stably-transfected cell line expressing SSTR2. Test compounds were dissolved in DMSO. Cells were incubated with compounds for 1-2h, and subsequently competitive binding of cAMP produced due to the activation of SSTR2 by the test compounds was measured using the Cisbio cAMP Gs dynamic assay system (Perkin Elmer, Bedford, MA).
The average pEC50 was determined for the test compounds.
(In general: TR-FRET usually uses a lanthanide donor and a delayed reading to cut background.)
A word on the EC50: it is the concentration needed to bring the measured effect to its halfway point. Consider `CC(N)CCN1Cc2ccc(F)cc2-c2cncc(C(=O)Nc3ccc(F)c(F)c3)c21` (stereo not drawn) [Compound 109, 5-(3-aminobutyl)-N-(3,4-difluorophenyl)-9-fluoro-6H-benzo [c][1,6]naphthyridine-4-carboxamide], for which the EC50 was 200 nM.
Take `NC1CCN(c2c(-c3cc(F)cc(F)c3)cnc3c2C(=O)N(c2ccc(F)c(F)c2)CC3)CC1` [Compound 110]: the EC50 is 158 nM.
For `Cc1cc(F)cc(-c2cnc3c(c2N2CCC(N)CC2)C(=O)N(c2ccc(F)c(F)c2)CC3)c1` [Compound 111], the EC50 was 15.8 nM.
Turning to `Cc1cc(C)cc(-c2cnc3c(c2N2CCC(N)CC2)C(=O)N(c2ccc(F)c(F)c2)CC3)c1` [Compound 112], the EC50 is 25.1 nM.
Turning to `N[C@@H]1CCN(c2c(-c3cc(F)cc(F)c3)cnc3c2C(=O)N(c2ccc(F)c(F)c2)CC3)C1` [Compound 113], the EC50 was more than 10000 nM.
As to `N[C@H]1CCN(c2c(-c3cc(F)cc(F)c3)cnc3c2C(=O)N(c2ccc(F)c(F)c2)CC3)C1` [Compound 114], the EC50 is more than 10000 nM.
In the case of `Cc1cc(C)cc(-c2cnc3c(c2N2CC[C@@H](N)C2)C(=O)N(c2cc(C)cc(C)c2)CC3)c1` [Compound 115], the EC50 is 1000 nM.
For `Cc1cc(C)cc(-c2cnc3c(c2N2CC[C@H](N)C2)C(=O)N(c2cc(C)cc(C)c2)CC3)c1` [Compound 116] the value was 1260 nM; for `CNCCCNc1c(C(=O)Nc2ccc(F)c(F)c2)cncc1-c1cc(F)cc(F)c1` [Compound 117], 2000 nM; for `CNCCCn1c(=O)n(-c2ccc(F)c(F)c2)c(=O)c2cncc(-c3cc(F)cc(F)c3)c21` [Compound 118], more than 10000 nM.
For `Cc1cc(F)cc(-c2cncc(N3Cc4ccccc4C3)c2N2CCC(N)CC2)c1` [Compound 119] the value was 0.0501 nM; for `NC1CCN(c2c(-c3nc4cc(F)c(F)cc4[nH]3)cnc3ncc4ccc(F)cc4c23)CC1` [Compound 120], 6310 nM; for `NC1CCN(c2c(-c3nc4cc(F)c(F)cc4[nH]3)cnc3c2-c2cc(F)ccc2CO3)CC1` [Compound 121, 1-(2-(5,6-difluoro-1H-benzo[d]imidazol-2-yl)-9-fluoro-6H-isochromeno[3,4-b]pyridin-1-yl)piperidin-4-amine], 631 nM.
Take `N#Cc1cccc(-c2ccc3ncc(-c4cc(F)cc(F)c4)c(-c4ccc(N)cc4)c3c2)c1O` [Compound 122, 3-(4-(4-aminophenyl)-3-(3,5-difluorophenyl)quinolin-6-yl)-2-hydroxy benzonitrile]: the EC50 was more than 10000 nM.
`N#Cc1cccc(-c2ccc3ncc(-c4cc(F)cc(F)c4)c(-c4ccc(N)cn4)c3c2)c1O` [Compound 123]: the EC50 is more than 10000 nM.
For `N#Cc1cccc(-c2ccc3ncc(-c4cc(F)cc(F)c4)c(C4=CCC(N)CC4)c3c2)c1O` (stereo not drawn) [Compound 125], the EC50 was 5.01 nM.
As for `N#Cc1cccc(-c2cc3ncc(-c4cc(F)cc(F)c4)c(N4CCC(N)CC4)c3o2)c1O` [Compound 127, 3-(7-(4-aminopiperidin-1-yl)-6-(3,5-difluorophenyl)furo[3,2-b]pyridine-2-yl)-2-hydroxybenzonitrile], the EC50 is 251 nM.
`NC(=O)c1cc(F)cc(-c2cc3ncc(-c4cc(F)cc(F)c4)c(N4CCC(N)CC4)c3o2)c1` [Compound 128]: the EC50 is 100 nM.
In the case of `COc1cc(F)cc(-c2cnc3cc(-c4ccc5[nH]c(=O)[nH]c5c4)oc3c2N2CCC(N)CC2)c1` [Compound 130] it was 100 nM.
Take `N#Cc1cccc(-c2cc3c(N4CCC(N)CC4)c(-c4cc(F)cc(F)c4)cnc3o2)c1O` [Compound 131]: the EC50 was more than 10000 nM.
Regarding `N#Cc1cccc(-c2cc3ncc(-c4cc(F)cc(F)c4)c(N4CCC(N)CC4)c3s2)c1O` [Compound 132], the EC50 was more than 10000 nM.
Take `NC1CCN(c2c(-c3cc(F)cc(F)c3)cnc3cc(-c4cc(F)cc(F)c4)sc23)CC1` [Compound 133]: the EC50 was 1580 nM.
Consider `NC1CCN(c2c(-c3cc(F)cc(F)c3)cnc3sc(-c4cc(F)cc(F)c4)cc23)CC1` [Compound 134], for which the EC50 is 631 nM.
In the case of `Cc1cc(F)cc(-c2cnc3ccc(-c4cccc(C#N)c4O)cc3c2N2CCC(NC(=N)N)CC2)c1` [Compound 136], the concentration giving a half-maximal response (EC50) is 20 nM.
Consider `N#Cc1cccc(-c2ccc3ncc(-c4cc(F)cc(F)c4)c(N4CC5(CNC5)C4)c3c2)c1O` [Compound 137], for which the concentration for a half-maximal effect (EC50) is more than 10000 nM.
Take `COCOc1c(C#N)cccc1-c1ccc2ncc(-c3cc(F)cc(F)c3)c(N3CC4(CNC4)C3)c2c1` [Compound 138]: the EC50 was 6310 nM.
Take `COCOc1c(C#N)cccc1-c1ccc2ncc(-c3cc(F)cc(F)c3)c(N3CC4(CN(C(C)=O)C4)C3)c2c1` [Compound 139]: the EC50 is more than 5010 nM.
For `COCOc1c(C#N)cccc1-c1ccc2ncc(-c3cc(F)cc(F)c3)c(O[C@H]3CC[C@@H](NC(=O)OC(C)(C)C)C3)c2c1` [Compound 140] the value was more than 10000 nM; for `COCOc1c(C#N)cccc1-c1ccc2ncc(-c3cc(F)cc(F)c3)c(OC3CCCC(NC(=O)OC(C)(C)C)C3)c2c1` (stereo not drawn) [Compound 141], more than 10000 nM; for `C=CCOc1c(C#N)cccc1-c1ccc2ncc(-c3cc(F)cc(F)c3)c(N3CCC(N)CC3)c2c1` [Compound 142], 0.501 nM.
On to `COCOc1c(C#N)cccc1-c1ccc2ncc(-c3cc(F)cc(F)c3)c(-n3ccc([N+](=O)[O-])c3)c2c1` [Compound 143], for which the EC50 is more than 10000 nM.
For `N#Cc1cccc(-c2ccc3ncc(-c4cc(F)cc(F)c4)c(-n4ccc(CN)c4)c3c2)c1O` [Compound 144] the value was 1260 nM; for `NC1CCN(c2c(-c3cc(F)cc(F)c3)cnc3ccc(-c4cc(F)cc(F)c4)cc23)CC1` [Compound 145], 0.0316 nM.
As to `N#Cc1cccc(-c2ccc3ncc(-c4cc(F)cc(F)c4)c(N4CCC(O)CC4)c3c2)c1NCCCN` [Compound 146], the EC50 is 398 nM.
Turning to `CCOC(=O)c1cc(-c2cc(F)cc(F)c2)cc2c(N3CCC(N)CC3)c(-c3cc(F)cc(F)c3)cnc12` [Compound 147], the EC50 was 0.0398 nM.
`CC(C)(C)OC(=O)NC1CCN(c2c(-c3cc(F)cc(F)c3)cnc3c(C(=O)O)cc(-c4cc(F)cc(F)c4)cc23)CC1` [Compound 148]: the EC50 was more than 794 nM.
Regarding `NC1CCN(c2c(-c3cc(F)cc(F)c3)cnc3c(C(=O)O)cc(-c4cc(F)cc(F)c4)cc23)CC1` [Compound 149], the EC50 was 0.398 nM.
Regarding `NC1CCN(c2c(-c3cc(F)cc(F)c3)cnc3ccc(C4=CC=CC5(O)C(=O)NCCN45)cc23)CC1` (stereo not drawn) [Compound 151], the concentration for a half-maximal effect (EC50) was 1.58 nM.
In the case of `NC1CCN(c2c(-c3cc(F)cc(F)c3)cnc3ccc(C4=CC=CC5(Cl)C(=O)NCCN45)cc23)CC1` (stereo not drawn) [Compound 152], the EC50 was 7.94 nM.
In the case of `C=COc1c(C#N)cccc1-c1ccc2ncc(-c3cc(F)cc(F)c3)c(N3CC[C@H](N)[C@@H](O)C3)c2c1` [Compound 153], the concentration for a half-maximal effect (EC50) is 3.16 nM.
Consider `COc1c(C#N)cccc1-c1ccc2ncc(-c3cc(F)cc(F)c3)c(N3CCC(N)CC3)c2c1` [Compound 154], for which the EC50 was 0.316 nM.
As to `CC(N)CCN1CCc2c(-c3cc(F)cc(F)c3)ccc3ncc(-c4cc(F)cc(F)c4)c1c23` (stereo not drawn) [Compound 155], the EC50 was 631 nM.
As for `CN1c2c(cnc3ccc(-c4cc(F)cc(F)c4)cc23)-c2cc(F)cc(F)c2C1CCN` (stereo not drawn) [Compound 157], the EC50 is 10 nM.
Consider `NC1CCN(c2c(-c3cc(F)cc(F)c3)cnc3ccc(C4=CC=CN5CCNC(=O)C45O)cc23)CC1` (stereo not drawn) [Compound 158], for which the concentration giving a half-maximal response (EC50) is 501 nM.
As for `NCc1cc(-c2cc(F)cc(F)c2)cc2c(N3CCC(N)CC3)c(-c3cc(F)cc(F)c3)cnc12` [Compound 159], the EC50 was 0.398 nM.
As to `NC1CCN(c2c(-c3cc(F)cc(F)c3)cnc3c(CO)cc(-c4cc(F)cc(F)c4)cc23)CC1` [Compound 160], the EC50 was 0.0251 nM.
`Cc1cc(F)cc(-c2c[n+]3c4ccc(cc4c2N2CCC(N)CC2)-c2ccccc2OCCCC3)c1` [Compound 161]: the EC50 is 10 nM.
As to `Cc1cc(F)cc(-c2cnc3ccc(-c4ccccc4C4NCCCN4)cc3c2N2CCC(=O)CC2)c1` [Compound 162], the EC50 was 1000 nM.
On to `Cc1cc(F)cc(-c2cnc3ccc(-c4cccc(C#N)c4O)cc3c2N2CCC(=O)CC2)c1` [Compound 163], for which the EC50 was more than 10000 nM.
With `Cc1cc(F)cc(-c2cnc3ccc(-c4cccc(C#N)c4O)cc3c2N2CCC(O)CC2)c1` [Compound 164], the EC50 is more than 10000 nM.
`Nc1nc(Cl)ccc1C(=O)Nc1cncc(-c2ccccc2)c1N1CCC(N)CC1` [Compound 165]: the EC50 was 12.6 nM.
